In patent publication US6737383B1, “Herbicidal oxadiazolidines” (priority 1999, dated 2004):

Assays:
smallflower flatsedge = test: Test B flood test smallflower flatsedge; format: in vivo, Cyperus difformis
Summary of the method: (§1)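 Plants were grown to the 2-leaf stage before treatment with test chemical, then held in a greenhouse for twelve to sixteen days. Injury was visually rated against untreated controls on a 0–10 scale, where 0 is no effect and 10 is complete control.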

velvetleaf = test: Test B pre/postemergence velvetleaf; format: in vivo, Abutilon theophrasti
Summary of the method: (§2)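 Herbicidal effect was estimated by eye on a ten-point control scale after plants spent twelve to sixteen days in a greenhouse following soil or foliar treatment. Foliar sprays targeted plants at one to four leaves; all doses were formulated in a non-phytotoxic solvent with surfactant.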

crabgrass = test: Test B pre/postemergence crabgrass; format: in vivo, Digitaria sanguinalis
Summary of the method: as §2

cocklebur = test: Test B pre/postemergence cocklebur; format: in vivo, Xanthium strumarium
Summary of the method: as §2

blackgrass = test: Test B pre/postemergence blackgrass; format: in vivo, Alopecurus myosuroides
Summary of the method: as §2

sugar beet = test: Test B pre/postemergence sugar beet; format: in vivo, Beta vulgaris
Summary of the method: as §2

rape = test: Test B pre/postemergence rape; format: in vivo, Brassica napus
Summary of the method: as §2

wild oat = test: Test B pre/postemergence wild oat; format: in vivo, Avena fatua
Summary of the method: as §2

duck salad = test: Test B flood test duck salad; format: in vivo, Heteranthera limosa
Summary of the method: as §1

bamyardgrass = test: Test B flood test barnyardgrass; format: in vivo, Echinochloa crus-galli
Summary of the method: as §1

wheat = test: Test B pre/postemergence wheat; format: in vivo, Triticum aestivum
Summary of the method: as §2

pigweed = test: Test B pre/postemergence pigweed; format: in vivo, Amaranthus retroflexus
Summary of the method: as §2

corn = test: Test B pre/postemergence corn; format: in vivo, Zea mays
Summary of the method: as §2

purple nutsedge = test: Test B pre/postemergence purple nutsedge; format: in vivo, Cyperus rotundus
Summary of the method: as §2

morningglory = test: Test B pre/postemergence morningglory; format: in vivo, Ipomoea hederacea
Summary of the method: as §2

rice = test: Test B flood test rice; format: in vivo, Oryza sativa
Summary of the method: as §1

[1] = Rate 62 g/ha, flood test species, Pre-emergence, visual evaluation after twelve to sixteen days
[2] = Rate 125 g/ha, under heading Pre-emergence, flood test species, visual evaluation after twelve to sixteen days
[3] = Rate 250 g/ha, Pre-emergence (flood test species), scale 0 to 10, 0 is no effect, 10 is complete control
[4] = Rate 500 g/ha, Pre-emergence, flood test species, scale 0 to 10 (0 no effect, 10 complete control)
[5] = Postemergence, Rate 250 g/ha, scale 0 to 10
[6] = Postemergence, Rate 500 g/ha, scale of 0 to 10 where 0 is no effect and 10 is complete control
[7] = Preemergence, Rate 62 g/ha, scale of 0 to 10 where 0 is no effect and 10 is complete control
[8] = Preemergence, Rate 125 g/ha, scale of 0 to 10 where 0 is no effect and 10 is complete control
[9] = Preemergence, Rate 250 g/ha, scale 0 to 10, 0 is no effect, 10 is complete control
[10] = Preemergence, Rate 500 g/ha, scale 0 to 10, 0 is no effect, 10 is complete control
[11] = Rate 62 g/ha, Postemergence, scale 0 to 10 (0 no effect, 10 complete control)
[12] = Rate 125 g/ha, Postemergence, scale 0 to 10, 0 is no effect, 10 is complete control

COC(C)n1c(=O)on(C(=O)N(c2ccccc2)C(C)C)c1=O (stereo not shown) [Compound 441]
0: Plant response rating, S. Flatsedge (0 to 10 scale, 0 is no effect, 10 is complete control) (smallflower flatsedge; [1]) | S. Flatsedge plant response rating (0 to 10 scale, 0 is no effect, 10 is complete control) (smallflower flatsedge; [2]) | S. Flatsedge plant response rating (smallflower flatsedge; [3]) | S. Flatsedge plant response rating (smallflower flatsedge; [4]) | Velvetleaf plant response rating (velvetleaf; [5]) | Velvetleaf plant response rating (velvetleaf; [6]) | Plant response rating, Velvetleaf (velvetleaf; [7]) | Plant response rating, Velvetleaf (velvetleaf; [8]) | Velvetleaf plant response rating (velvetleaf; [9]) | Velvetleaf plant response rating (velvetleaf; [10]) | Velvetleaf plant response rating (velvetleaf; [11]) | Velvetleaf plant response rating (velvetleaf; [12]) | Crabgrass plant response rating (crabgrass; [5]) | Crabgrass plant response rating (crabgrass; [6]) | Plant response rating, Crabgrass (crabgrass; [7]) | Plant response rating, Crabgrass (crabgrass; [8]) | Crabgrass plant response rating (crabgrass; [9]) | Crabgrass plant response rating (crabgrass; [10]) | Crabgrass plant response rating (crabgrass; [11]) | Crabgrass plant response rating (crabgrass; [12]) | Cocklebur plant response rating (cocklebur; [5]) | Cocklebur plant response rating (cocklebur; [6]) | Plant response rating, Cocklebur (cocklebur; [7]) | Plant response rating, Cocklebur (cocklebur; [8]) | Cocklebur plant response rating (cocklebur; [9]) | Cocklebur plant response rating (cocklebur; [10]) | Cocklebur plant response rating (cocklebur; [11]) | Cocklebur plant response rating (cocklebur; [12]) | Blackgrass plant response rating (blackgrass; [5]) | Blackgrass plant response rating (blackgrass; [6]) | Plant response rating, Blackgrass (blackgrass; [7]) | Plant response rating, Blackgrass (blackgrass; [8]) | Blackgrass plant response rating (blackgrass; [9]) | Blackgrass plant response rating (blackgrass; [10]) | Blackgrass plant response rating (blackgrass; [11]) | Blackgrass plant response rating (blackgrass; [12]) | Sugarbeets plant response rating (sugar beet; [5]) | Sugarbeets plant response rating (sugar beet; [6]) | Plant response rating, Sugarbeets (sugar beet; [7]) | Plant response rating, Sugarbeets (sugar beet; [8]) | Sugarbeets plant response rating (sugar beet; [9]) | Sugarbeets plant response rating (sugar beet; [10]) | Sugarbeets plant response rating (sugar beet; [11]) | Sugarbeets plant response rating (sugar beet; [12]) | Rape plant response rating (rape; [5]) | Rape plant response rating (rape; [6]) | Plant response rating, Rape (rape; [7]) | Plant response rating, Rape (rape; [8]) | Rape plant response rating (rape; [9]) | Rape plant response rating (rape; [10]) | Rape plant response rating (rape; [11]) | Rape plant response rating (rape; [12]) | Wild oats plant response rating (wild oat; [5]) | Wild oats plant response rating (wild oat; [6]) | Plant response rating, Wild oats (wild oat; [7]) | Plant response rating, Wild oats (wild oat; [8]) | Wild oats plant response rating (wild oat; [9]) | Wild oats plant response rating (wild oat; [10]) | Wild oats plant response rating (wild oat; [11]) | Wild oats plant response rating (wild oat; [12]) | Plant response rating, Ducksalad (0 to 10 scale, 0 is no effect, 10 is complete control) (duck salad; [1]) | Ducksalad plant response rating (0 to 10 scale, 0 is no effect, 10 is complete control) (duck salad; [2]) | Ducksalad plant response rating (duck salad; [3]) | Ducksalad plant response rating (duck salad; [4]) | Plant response rating, Barnyardgrass (0 to 10 scale, 0 is no effect, 10 is complete control) (bamyardgrass; [1]) | Barnyardgrass plant response rating (0 to 10 scale, 0 is no effect, 10 is complete control) (bamyardgrass; [2]) | Barnyardgrass plant response rating (bamyardgrass; [3]) | Barnyardgrass plant response rating (bamyardgrass; [4]) | Wheat plant response rating (wheat; [5]) | Wheat plant response rating (wheat; [6]) | Plant response rating, Wheat (wheat; [7]) | Plant response rating, Wheat (wheat; [8]) | Wheat plant response rating (wheat; [9]) | Wheat plant response rating (wheat; [10]) | Wheat plant response rating (wheat; [11]) | Wheat plant response rating (wheat; [12]) | Redroot pigweed plant response rating (pigweed; [5]) | Redroot pigweed plant response rating (pigweed; [6]) | Plant response rating, Redroot pigweed (pigweed; [7]) | Plant response rating, Redroot pigweed (pigweed; [8]) | Redroot pigweed plant response rating (pigweed; [9]) | Redroot pigweed plant response rating (pigweed; [10]) | Redroot pigweed plant response rating (pigweed; [11]) | Redroot pigweed plant response rating (pigweed; [12]) | Corn plant response rating (corn; [5]) | Corn plant response rating (corn; [6]) | Plant response rating, Corn (corn; [7]) | Plant response rating, Corn (corn; [8]) | Corn plant response rating (corn; [9]) | Corn plant response rating (corn; [10]) | Corn plant response rating (corn; [11]) | Corn plant response rating (corn; [12]) | Nutsedge plant response rating (purple nutsedge; [5]) | Nutsedge plant response rating (purple nutsedge; [6]) | Plant response rating, Nutsedge (purple nutsedge; [7]) | Plant response rating, Nutsedge (purple nutsedge; [8]) | Nutsedge plant response rating (purple nutsedge; [9]) | Nutsedge plant response rating (purple nutsedge; [10]) | Nutsedge plant response rating (purple nutsedge; [11]) | Nutsedge plant response rating (purple nutsedge; [12]) | Morningglory plant response rating (morningglory; [5]) | Morningglory plant response rating (morningglory; [6]) | Plant response rating, Morningglory (morningglory; [7]) | Plant response rating, Morningglory (morningglory; [8]) | Morningglory plant response rating (morningglory; [9]) | Morningglory plant response rating (morningglory; [10]) | Morningglory plant response rating (morningglory; [11]) | Morningglory plant response rating (morningglory; [12]) | Plant response rating, Rice (0 to 10 scale, 0 is no effect, 10 is complete control) (rice; [1]) | Rice plant response rating (0 to 10 scale, 0 is no effect, 10 is complete control) (rice; [2]) | Rice plant response rating (rice; [3]) | Rice plant response rating (rice; [4])
